Assay results from PMC11491346, “Molecular insights and inhibitory dynamics of flavonoids in targeting Pim-1 kinase for cancer therapy” (Frontiers in Pharmacology, 2024).

Biological target: Pim-1 kinase (Homo sapiens, UniProt P11309)
Experiment: luminescence-based kinase assay (ADP to ATP, Ultra-Glo Luciferase), Pim-1 assay
Assay type: biochemical
Details: for class as Pim-1 kinase inhibitor (in words): Figures 10, 11 and 13; for IC50: in vitro enzyme inhibition, read-out: Pim-1 kinase inhibitory activity IC50
Text: Enzyme activity was quantified using a luminescence-based kinase assay, which tracks the conversion of ADP to ATP, subsequently producing light via Ultra-Glo™ Luciferase. This luminescence is indicative of ADP levels and thus, enzyme activity. This method is particularly effective for analyzing the influence of various chemicals on different kinases, serving both initial screenings and specificity profiling.
The inhibitory concentration (IC50) values, expressed in micromolar (μM), were obtained from the Pim-1 assay. These values were converted to their corresponding negative logarithmic scale (pIC50) to facilitate a linear comparison using the following formula: pIC50=−log10 IC50 in M Where IC50 values were first converted from μM to molar (M) units before logarithmic transformation. Pulling force values, measured in pN, were sourced from the SMD experiments.

Pim-1 kinase, sequence (P11309 whole entry): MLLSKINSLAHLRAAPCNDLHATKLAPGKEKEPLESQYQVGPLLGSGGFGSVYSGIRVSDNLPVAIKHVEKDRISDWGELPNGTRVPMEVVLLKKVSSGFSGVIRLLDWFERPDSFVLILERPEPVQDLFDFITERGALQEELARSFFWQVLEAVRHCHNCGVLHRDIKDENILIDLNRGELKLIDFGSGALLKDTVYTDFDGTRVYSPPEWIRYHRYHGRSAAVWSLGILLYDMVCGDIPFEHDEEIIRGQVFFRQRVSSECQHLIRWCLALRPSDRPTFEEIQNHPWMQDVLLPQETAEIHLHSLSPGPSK

| IC50 | SMILES | also measured |
| --- | --- | --- |
| – | O=c1cc(-c2ccccc2)oc2cccc(O)c12 [5-Hydroxyflavone] | class as Pim-1 kinase inhibitor (in words): could not inhibit Pim-1 kinase activity |
| – | O=c1cc(-c2ccccc2)oc2ccc(O)cc12 [6-Hydroxyflavone] | class as Pim-1 kinase inhibitor (in words): could not inhibit Pim-1 kinase activity |
| – | O=c1cc(-c2ccccc2)oc2cc(O)ccc12 [7-Hydroxyflavone] | class as Pim-1 kinase inhibitor (in words) (listed as 7-ydroxyflavone): could not inhibit Pim-1 kinase activity |
| 5.33 µM | O=c1cc(-c2ccccc2)oc2cc(O)cc(O)c12 [Compound 6] | – |
| 1.81 µM | O=c1c(O)c(-c2ccccc2)oc2cc(O)cc(O)c12 [Compound 8, Galangin] | – |
| 1.78 µM | O=c1c(O)c(-c2ccc(O)cc2)oc2cc(O)cc(O)c12 [Compound 9, Kaempferol] | – |
| 5.28 µM | O=c1cc(-c2ccc(O)cc2)oc2cc(O)cc(O)c12 [Compound 10] | – |
| 4.63 µM | O=c1cc(-c2ccc(O)c(O)c2)oc2cc(O)cc(O)c12 [Compound 11] | – |

| SMILES | IC50 | also measured |
| --- | --- | --- |
| O=c1c(O)c(-c2ccccc2)oc2ccccc12 [Compound 4, 3-Hydroxyflavone] | 35.1 µM | – |
| O=c1cc(-c2ccccc2)oc2cc(O)c(O)c(O)c12 [Compound 7] | 5.65 µM | – |
